Among the data in patent publication US20220409593A1 (ARKUDA THERAPEUTICS, priority 2019, published 2022) are EC50 values, retold here.

Some results are limits rather than exact numbers.

One test deals with secreted mouse PGRN. In words: progranulin induction cellular assay (PGRN assay, ELISA-based readout). The note with it: Mus musculus, progranulin secreted into cell culture medium, cells named in method: mouse primary microglia, primary cortical neurons, BV-2. The protocol:
Cellular Assays: To measure the efficacy of compounds, a progranulin induction cellular assay in mouse primary microglia (pMG), primary cortical neurons, and BV-2 cell lines is used. BV-2 cells are split the day before plating into a 96well plate format at approximately 80%. Cells should be plated the day before and allowed for 1 hour attachment period and for 16 hour incubation. Levels of progranulin secreted into the cell culture medium or retained in the cell lysate can be quantified using an ELISA-based readout and measurement of secreted mouse PGRN in the medium was assessed by the methodology published by Ghidoni et al. 2012. Standard ELISA kits to measure PGRN are available from vendors such as Adipogen, R&D, and Biovendor.
Table D below presents the results of a PGRN assay as described above.
`Fc1cc(F)cc([C@H]2c3ccccc3CCN2C2=NC[C@@]3(CN4CCC3CC4)O2)c1` (racemic) [Compound 3036] returned a half-maximal effective concentration (EC50) of 3750 nM. The same measure, in the same setting: as for `CN1CCCC2(CN=C(N3CCc4ccccc4[C@@H]3c3cccc(F)c3F)O2)C1` (mixture of isomers) [Compound 3042], the figure is 1030 nM. On the same count and under the same terms, as for `Fc1ccc([C@H]2c3ccccc3CCN2C2=NC[C@]3(CN4CCC3CC4)O2)cc1` (single isomer, unassigned) [Compound 3000], the figure is 250 nM. The compound `Fc1ccc([C@H]2c3ccccc3CCN2C2=NC[C@@]3(CN4CCC3CC4)O2)cc1` (single isomer, unassigned) [Compound 3001] showed an EC50 of 100 nM.

For `CN1CCC[C@]2(CN=C(N3CCc4ccccc4[C@@H]3c3cc(F)c(F)c(F)c3)O2)C1` (single isomer, unassigned) [Compound 3002], the EC50 was 5080 nM.

`CN1CCC[C@@]2(CN=C(N3CCc4ccccc4[C@@H]3c3cc(F)c(F)c(F)c3)O2)C1` (single isomer, unassigned) [Compound 3003] displayed a half-maximal effective concentration (EC50) of 4280 nM. For `CN1CCC[C@@]2(CN=C(N3CCc4ccccc4[C@H]3c3cc(F)c(F)c(F)c3)O2)C1` (single isomer, unassigned) [Compound 3005], the 50% effective concentration (EC50) is greater than 10000 nM. Still for that read-out and setting: the same measure for `CN1CCC[C@@]2(CN=C(N3CCc4ccccc4[C@@H]3c3cccc(F)c3)O2)C1` (single isomer, unassigned) [Compound 3007]: 370 nM; for `CN1CCC[C@]2(CN=C(N3CCc4ccccc4[C@H]3c3cccc(F)c3)O2)C1` (single isomer, unassigned) [Compound 3008]: greater than 10000 nM; for `CN1CCC[C@]2(CN=C(N3CCc4ccccc4[C@@H]3c3cc(F)cc(F)c3)O2)C1` (single isomer, unassigned) [Compound 3010]: 6390 nM. The compound `CN1CCC[C@@]2(CN=C(N3CCc4ccccc4[C@@H]3c3cc(F)cc(F)c3)O2)C1` (single isomer, unassigned) [Compound 3011] came in with an EC50 of 7640 nM.

In turn, `CN1CCC[C@]2(CN=C(N3CCc4ccccc4[C@H]3c3cc(F)cc(F)c3)O2)C1` (single isomer, unassigned) [Compound 3012] showed an EC50 greater than 10000 nM.

`CN1CCC[C@@]2(CN=C(N3CCc4ccccc4[C@H]3c3cc(F)cc(F)c3)O2)C1` (single isomer, unassigned) [Compound 3013] showed an EC50 of 1590 nM. As to `CN1CCC[C@]2(CN=C(N3CCc4ccccc4[C@@H]3c3ccc(F)cc3F)O2)C1` (single isomer, unassigned) [Compound 3014], a half-maximal response (EC50) required 1680 nM.

The compound `CN1CCC[C@@]2(CN=C(N3CCc4ccccc4[C@@H]3c3ccc(F)cc3F)O2)C1` (single isomer, unassigned) [Compound 3015] showed a 50% effective concentration (EC50) of 880 nM. Same read-out and setting: as for `Fc1ccc([C@H]2c3ccccc3CCN2C2=NC[C@@]3(CN4CCC3CC4)O2)c(F)c1` (single isomer, unassigned) [Compound 3016], the figure is 860 nM. On the same count and under the same terms, the same measure for `Fc1ccc([C@H]2c3ccccc3CCN2C2=NC[C@]3(CN4CCC3CC4)O2)c(F)c1` (single isomer, unassigned) [Compound 3017]: 260 nM; for `Fc1cccc([C@@H]2c3ccccc3CCN2C2=NC[C@@]3(CN4CCC3CC4)O2)c1F` (single isomer, unassigned) [Compound 3018]: greater than 10000 nM. In turn, `Fc1cccc([C@H]2c3ccccc3CCN2C2=NC[C@]3(CN4CCC3CC4)O2)c1F` (single isomer, unassigned) [Compound 3019] displayed an EC50 of 300 nM. That is a sub-micromolar value. As for `Fc1ccc([C@H]2c3ccccc3CCN2C2=NC[C@]3(CN4CCC3(F)CC4)O2)cc1` (single isomer, unassigned) [Compound 3033], a half-maximal response (EC50) required 2380 nM.

`Fc1ccc([C@H]2c3ccccc3CCN2C2=NO[C@@]3(CN4CCC3(F)CC4)O2)cc1` (single isomer, unassigned) [Compound 3034] had a concentration giving a half-maximal response (EC50) of 450 nM. Turning to `c1ccc([C@H]2c3ccccc3CCN2C2=NC[C@]3(CN4CCC3CC4)O2)cc1` (single isomer, unassigned) [Compound 3040], the response was half-maximal at 1130 nM (EC50). This EC50 is about 2.5-fold higher than that of the compound before. Turning to `c1ccc([C@H]2c3ccccc3CCN2C2=NC[C@@]3(CN4CCC3CC4)O2)cc1` (single isomer, unassigned) [Compound 3041], the EC50 worked out at 1720 nM. The same measure, in the same setting: as for `CN1CC[C@@H](F)[C@]2(CN=C(N3CCc4ccccc4[C@@H]3c3ccc(F)cc3)O2)C1` (single isomer, unassigned) [Compound 3045], the figure is 4490 nM. Compound `CN1CCC(F)[C@]2(CN=C(N3CCc4ccccc4[C@@H]3c3ccc(F)cc3)O2)C1` (single isomer, unassigned) [Compound 3046] yielded a concentration giving a half-maximal response (EC50) of 3370 nM. Take `Fc1ccc([C@H]2c3ccccc3CCN2C2=NC[C@]3(CCNC3)O2)cc1` (single isomer, unassigned) [Compound 3050]: the EC50 was 15 nM. The same measure, in the same setting: the same measure for `Fc1ccc([C@H]2c3ccccc3CCN2C2=N[C@]3(CCCNC3)CO2)cc1` (single isomer, unassigned) [Compound 3053]: 250 nM; for `Fc1ccc([C@H]2c3ccccc3CCN2C2=N[C@@]3(CCCNC3)CO2)cc1` (single isomer, unassigned) [Compound 3054]: 110 nM. `Fc1ccc([C@H]2c3ccccc3CCN2C2=N[C@]3(CO2)CN2CCC3CC2)cc1` (single isomer, unassigned) [Compound 3057A] displayed an EC50 of 231 nM.

In turn, `Fc1ccc([C@H]2c3ccccc3CCN2C2=N[C@@]3(CO2)CN2CCC3CC2)cc1` (single isomer, unassigned) [Compound 3057B] had a concentration for a half-maximal effect (EC50) of 126 nM. The same measure, in the same setting: as for `Fc1ccc([C@H]2c3ccccc3CCN2C2=NC[C@H]([C@@H]3CCNC3)O2)cc1` (single isomer, unassigned) [Compound 3063], the figure is 208 nM. `Fc1ccc([C@H]2c3ccccc3CCN2C2=NCC([C@H]3CCNC3)O2)cc1` (single isomer, unassigned) [Compound 3064] displayed a 50% effective concentration (EC50) of 84.7 nM. The same measure, in the same setting: the same measure for `Fc1ccc([C@H]2c3ccccc3CCN2C2=NC[C@@H]([C@H]3CCNC3)O2)cc1` (single isomer, unassigned) [Compound 3065]: 244 nM; for `Fc1ccc([C@H]2c3ccccc3CCN2C2=NC[C@@H]([C@@H]3CCNC3)O2)cc1` (single isomer, unassigned) [Compound 3066]: 55 nM; for `Fc1ccc([C@H]2c3ccccc3CCN2C2=NCC(C3CNC3)O2)cc1` (single isomer, unassigned) [Compound 3069]: 109 nM. `Fc1ccc([C@H]2c3ccccc3CCN2C2=NC[C@@H](C3CNC3)O2)cc1` (single isomer, unassigned) [Compound 3070] showed a half-maximal effective concentration (EC50) of 96.6 nM. Same read-out and setting: the same measure for `Fc1ccc([C@H]2c3ccccc3CCN2C2=N[C@H]([C@@H]3CCNC3)CO2)cc1` (single isomer, unassigned) [Compound 3071]: 429 nM. On the same count and under the same terms, the same measure for `Fc1ccc([C@H]2c3ccccc3CCN2C2=N[C@H]([C@H]3CCNC3)CO2)cc1` (single isomer, unassigned) [Compound 3072]: 330 nM; for `Fc1ccc([C@H]2c3ccccc3CCN2C2=N[C@@H]([C@H]3CCNC3)CO2)cc1` (single isomer, unassigned) [Compound 3073]: 66.9 nM. In turn, `Fc1ccc([C@H]2c3ccccc3CCN2C2=N[C@@H]([C@@H]3CCNC3)CO2)cc1` (single isomer, unassigned) [Compound 3074] returned a concentration giving a half-maximal response (EC50) of 338 nM. This EC50 is about 5.1-fold higher than that of the compound before.

`Fc1ccc([C@H]2c3ccccc3CCN2C2=NC[C@H]([C@@H]3CCCNC3)O2)cc1` (single isomer, unassigned) [Compound 3075] gave an EC50 of 222 nM.

In turn, `Fc1ccc([C@H]2c3ccccc3CCN2C2=NC[C@H]([C@H]3CCCNC3)O2)cc1` (single isomer, unassigned) [Compound 3076] came in with a half-maximal effective concentration (EC50) greater than 10000 nM. Same read-out and setting: as for `Fc1ccc([C@H]2c3ccccc3CCN2C2=NC[C@@H]([C@H]3CCCNC3)O2)cc1` (single isomer, unassigned) [Compound 3077], the figure is 475 nM. The same measure, in the same setting: as for `N[C@H]1CC[C@]2(CN=C(N3CCc4ccccc4[C@@H]3c3ccc(F)cc3)O2)C1` (single isomer, unassigned) [Compound 3078], the figure is 127 nM; as for `N[C@@H]1CC[C@]2(CN=C(N3CCc4ccccc4[C@@H]3c3ccc(F)cc3)O2)C1` (single isomer, unassigned) [Compound 3079], 236 nM. As to `N[C@H]1CC[C@@]2(CN=C(N3CCc4ccccc4[C@@H]3c3ccc(F)cc3)O2)C1` (single isomer, unassigned) [Compound 3080], a half-maximal response (EC50) required 110 nM. Compound `N[C@@H]1CC[C@@]2(CN=C(N3CCc4ccccc4[C@@H]3c3ccc(F)cc3)O2)C1` (single isomer, unassigned) [Compound 3081] returned an EC50 of 119 nM. The same measure, in the same setting: the same measure for `N[C@H]1CCC[C@]12CN=C(N1CCc3ccccc3[C@@H]1c1ccc(F)cc1)O2` (single isomer, unassigned) [Compound 3086]: 757 nM; for `Fc1ccc([C@H]2c3ccccc3CCN2C2=N[C@@H](C3CCNCC3)CO2)cc1` (single isomer, unassigned) [Compound 3133]: 612 nM.

Staying with this test, now noted: progranulin secreted into cell culture medium, cells named in method: mouse primary microglia, primary cortical neurons, BV-2.
On to `CN1CCC[C@]2(CN=C(N3CCc4ccccc4[C@@H]3c3cc(F)c(F)c(F)c3)O2)C1` (single isomer, unassigned) [Compound 3004], for which the 50% effective concentration (EC50) was greater than 10000 nM. On the same count and under the same terms, as for `CN1CCC[C@]2(CN=C(N3CCc4ccccc4[C@@H]3c3cccc(F)c3)O2)C1` (single isomer, unassigned) [Compound 3006], the figure is 1000 nM; as for `CN1CCC[C@]2(CN=C(N3CCc4ccccc4[C@@H]3c3cccc(F)c3)O2)C1` (single isomer, unassigned) [Compound 3009], 7020 nM.
